Assay results reported in ChEMBL document CHEMBL1909524, “Discovery of a novel series of cyclic urea as potent CCR5 antagonists” (Bioorg Med Chem Lett, 2011).

Assays:
[1] = system: Human immunodeficiency virus 1; assay: Antiviral activity against HIV1 Ba-L infected in human HOS cells assessed as reduction of viral replication after 4 days by Steady-Glo luciferase assay; type: functional, organism-based; conditions: Human immunodeficiency virus 1, Ba-L, 96 h
[2] = Metabolic stability of the compound in fasted stimulated intestinal fluid; type: physicochemical; conditions: simulated gi fluid
[3] = system: Human immunodeficiency virus 1; assay: Antiviral activity against HIV1 Ba-L infected in human PBL cells assessed as reduction of viral replication after 4 days by Steady-Glo luciferase assay; type: functional, organism-based; conditions: Human immunodeficiency virus 1, Ba-L, 96 h
[4] = system: PBL; assay: Cytotoxicity against human PBL cells assessed as cell death up to 1 uM by celltiter glo assay; type: cell-based
[5] = system: HOS; assay: Cytotoxicity against human HOS cells assessed as cell death up to 1 uM by celltiter glo assay; type: cell-based
[6] = Stability of the compound in fasted stimulated intestinal fluid assessed as half life at pH 6; type: physicochemical; conditions: fasted simulated intestinal fluid
[7] = Clearance in dog at 1 mg/kg, po; type: ADME, organism-based, Canis lupus familiaris; design: dose 1 mg/kg, route oral; conditions: in vivo
[8] = Half life in monkey at 1 mg/kg, iv; type: ADME, organism-based, Macaca mulatta; design: dose 1 mg/kg, route intravenous; conditions: rhesus monkey, in vivo
[9] = Oral bioavailability in dog at 1 mg/kg; type: ADME, organism-based, Canis lupus familiaris; conditions: in vivo
[10] = Half life in dog at 1 mg/kg, iv; type: ADME, organism-based, Canis lupus familiaris; design: dose 1 mg/kg, route intravenous; conditions: in vivo
[11] = Clearance in rat; type: ADME, organism-based; conditions: in vivo
[12] = Stability of the compound in fasted stimulated intestinal fluid within 1000 hrs; type: physicochemical; conditions: simulated gi fluid
[13] = Oral bioavailability in monkey at 1 mg/kg; type: ADME, organism-based, Macaca mulatta; conditions: rhesus monkey, in vivo
[14] = Clearance in monkey at 1 mg/kg, po; type: ADME, organism-based, Macaca mulatta; design: dose 1 mg/kg, route oral; conditions: rhesus monkey, in vivo

| IC50 [1] | IC50 [3] | SMILES | Activity [4] | Activity [5] | further results |
| --- | --- | --- | --- | --- | --- |
| 14 nM |  | Cc1nc(Oc2ccc(NS(C)(=O)=O)cc2)ccc1CN1CCC(N2C(=O)N(c3cc(C(N)=O)c(F)cc3F)C(=O)C2c2ccccc2)CC1 (racemic) |  |  | Stability [2]: Unstable |
| 213 nM | 289 nM | Cc1nc(Oc2ccc(S(C)(=O)=O)cc2)ccc1CN1CCC(N2C(=O)N(c3cc(C(N)=O)c(F)cc3F)C[C@@H]2c2ccccc2)CC1 |  |  |  |
| 2.6 nM | 1.6 nM | CC(C)c1nc(Oc2ccc(S(C)(=O)=O)cc2)ccc1CN1CCC(N2C(=O)N(c3cc(C(N)=O)c(F)cc3F)C[C@H]2c2ccccc2)CC1 | Non-toxic | Non-toxic |  |
| 5.4 nM |  | Cc1cc(S(C)(=O)=O)ccc1Oc1ccc(CN2CCC(N3C(=O)N(c4cc(C(N)=O)c(F)cc4F)C[C@H]3c3ccccc3)CC2)c(C)n1 | Non-toxic | Non-toxic |  |
| 5.2 nM | 0.6 nM | Cc1nc(Oc2ccc(S(C)(=O)=O)cc2F)ccc1CN1CCC(N2C(=O)N(c3cc(C(N)=O)c(F)cc3F)C[C@H]2c2ccccc2)CC1 | Non-toxic | Non-toxic |  |
| 12 nM | 2 nM | Cc1nc(Oc2ccc(S(C)(=O)=O)cc2)ccc1CN1CCC(N2C(=O)N(c3cc(C(N)=O)c(F)cc3F)CC2c2ccccc2)CC1 (racemic) |  |  |  |
| 1.7 nM | 0.9 nM | Cc1nc(Oc2ccc(NS(C)(=O)=O)cc2)ccc1CN1CCC(N(Cc2ccccc2F)C(=O)Nc2cc(C(N)=O)c(F)cc2F)CC1 |  |  |  |
| 2 nM | 0.6 nM | Cc1nc(Oc2ccc(NS(C)(=O)=O)cc2)ccc1CN1CCC(N(C(=O)Nc2cc(C(N)=O)c(F)cc2F)c2cccc(F)c2)CC1 |  |  | half-life [6]: 334 h |
| 3.3 nM | 0.5 nM | Cc1nc(Oc2ccc(CC(=O)NC(C)C)cc2)ccc1CN1CCC(N2C(=O)N(c3cc(C(N)=O)c(F)cc3F)C[C@H]2c2ccccc2)CC1 | Non-toxic | Non-toxic |  |
| 4 nM | 1 nM | Cc1nc(Oc2ccc(S(C)(=O)=O)cc2)ccc1CN1CCC(N2C(=O)N(c3cc(C(N)=O)c(F)cc3F)C[C@H]2c2ccccc2)CC1 | Non-toxic | Non-toxic | CL/F [7]: 2.1 mL/min/kg; half-life [8]: 1.4 h; bioavailability [9]: 76%; half-life [10]: 6.9 h; clearance [11]: 27 mL/min/kg; Stability [12]: Stable; bioavailability [13]: 110%; CL/F [14]: 20.2 mL/min/kg |
| 3.6 nM | 1.1 nM | Cc1nc(Oc2ccc(S(=O)(=O)C(C)C)cc2)ccc1CN1CCC(N2C(=O)N(c3cc(C(N)=O)c(F)cc3F)C[C@H]2c2ccccc2)CC1 | Non-toxic | Non-toxic |  |

| SMILES | IC50 [1] | IC50 [3] | Activity [4] | Activity [5] | further results |
| --- | --- | --- | --- | --- | --- |
| Cc1nc(Oc2ccc(NS(C)(=O)=O)cc2)ccc1CN1CCC(N(C(=O)Oc2ccc(F)c(C(N)=O)c2)c2cccc(F)c2)CC1 | 29 nM |  |  |  |  |
